Experimental data taken from patent US20060040883A1, “Methods for treating cancer using anti-Wnt2 monoclonal antibodies and siRNA” (The Regents of the University of California, priority 2004, published 2006).

What was measured:
[1] = tested on: MS1 mesothelioma cells; test: Proliferation assay (tetrazolium conversion) in MS1 cells; assay type: cell-based, human; details: three days
Protocol: Alimta® (MTA) was supplied by Eli Lilly (Indianapolis, Ind.). Alimta® was diluted in sterile physiological solution at a concentration of 10 mg/ml. The stock was divided into aliquots, stored at −80° C., and diluted in culture medium before each experiment. Wnt2 antibody was stored at 4° C. and used as previously described. Cell proliferation was determined by measuring metabolic activity of tetrazolium conversion (Cell Titer 96 assay, Promega, Madison, Wis.). Briefly, 5,000 cells were plated per well in a 96-well plate and culture medium containing increasing concentrations of both drugs was added. Plates were incubated at 37° C. for 72 hours in a CO2 incubator. Then a solubilization/stop solution was added and the absorbance was recorded with a […] at a wavelength of 570 nm. Each experiment was repeated at least 3 times in triplicate.
The effects of the anti-Wnt2 monoclonal antibody on cell proliferation were assessed and compared with the effects of Alimta®. Alimta® (LY231514, MTA, pemetrexed) is a novel multifunctional antifolate antimetabolite (Hanauske Lung Cancer 45 Suppl 1:S121-4 (2004)). […] Alimta® is now considered a standard in the treatment of surgically non-amenable mesothelioma. […] Three days later the cell proliferation was assessed by measuring the metabolic activity of cellular enzyme (here the tetrazolium conversion).

[2] = tested on: JNK; test: JNK activity; assay type: cell-based; details: inhibition of Dvl by blocking CK-2 activity
From the text: Through frizzled receptor and dishevelled protein, Wnt signal activates two distinct pathways: the canonical pathway (i.e., β catenin pathway) and the JNK pathway. Dishevelled protein has three highly conserved domains, DIX, PDZ, and DEP. Among them, the DIX and PDZ domains are necessary for the canonical signaling pathway while the DEP domain is important for the activation of JNK pathway. […] Most likely, the activation of JNK after anti-Wnt antibody treatment is through Dvl.

[3] = tested on: A549, LOX and FEMX; test: Specificity control with blocking peptide (apoptosis by flow cytometry); assay type: cell-based, human; details: 300 μg/ml for 72 hrs, alone
From the text: Cells were harvested by trypsinization and processed for determination of cell surface annexin-V and propodium iodide (PI) contents, according to the manufacture's protocol (Annexin V FITC Apoptosis Detection Kit (Oncogene, Cambridge, Mass.); Apotarget (BioSource International)). With the use of Annexin-V-PI double staining regime, three populations of cells are distinguishable in two color flow cytometry: (a) non-apoptotic cells: annexin-V and PI negative; (b) early apoptotic cells with exposed phosphatidylserine but intact cell membranes bound to Annexin V-FITC but excluded propidium iodide; and (c) cells in necrotic or late apoptotic stages were labeled with both Annexin V-FITC and propidium iodide. Then stained cells were immediately analyzed by flow cytometry (FACScan; Decton Dickinson, Franklin Lake, N.J.). TUNEL staining of tumor tissue samples harvested from in vivo experiment was performed using ApopTag Peroxidase In Situ Oligo Ligation Apoptosis Detection Kit (Chemicon International, Temecula, Calif.) according to the manufacturer's protocol.
As a specificity control, induction of apoptosis was examined by using monoclonal Wnt2 antibody blocked by overnight pre-incubation with blocking peptide (30-fold over the antibody) in A549, LOX and FEMX. […] Same dose of blocking peptide (300 μg/ml for 72 hrs) alone had no effect on cell viability.

[4] = tested on: hepatoma cell lines HepG2 and Hep3B; test: Cytotoxic effects in hepatoma cell lines; assay type: cell-based; details: data not shown

Nc1nc2[nH]cc(CCc3ccc(C(=O)N[C@@H](CCC(=O)O)C(=O)O)cc3)c2c(=O)[nH]1 [Alimta®, pemetrexed]
decrease in cell proliferation ([1]; 1 μg/ml): about 41.9%
decrease in cell proliferation ([1]; 10 μg/ml): about 42.9%

O=c1cc(-c2ccc(O)cc2)oc2cc(O)cc(O)c12 [Apigenin, reference compound]
JNK activity [2]: increased JNK activity

blocking peptide: peptide pre-incubated with the anti-Wnt2 antibody (30-fold over the antibody) to block it (SSQRQLCHRHPDVMR; UniProt P09544 49-63, looked up, fragment) [reference compound]
cell viability [3]: no effect

B1: anti-Wnt2 monoclonal antibody: mouse monoclonal IgG1 raised against residues 49-63 of human Wnt2; 17F7.G7 was used in the experiments described (protein)
chain: SWWYMRATGGSSRVMCDNVPGLVSSQRQLCHRHPDVMRAISQGVAEWTAECQHQFRQHRWNCNTLDRDHSLFGRVLLRSSRESAFVYAISSAGVVFAITRACSQGEVKSCSCDPKKMGSAKDSKGIFDWGGCSDNIDYGIKFARAFVDAKERKGKDARALMNLHNNRAGRKAVKRFLKQECKCHGVSGSCTLRTCWLAMADFRKTGDYLWRKYNGAIQVVMNQDGTGFTVANERFKKPTKNDLVYFENSPDYCIRDREAGSLGTAGRVCNLTSRGMDSCEVMCCGRGYDTSHVTRMTKCGCKFHWCCAVRCQDCLEALDVHTCKAPKNADWTTAT
cytotoxic effects [4]: cytotoxic effects
